Reference: US20060069132A1, “Azolecarboxamide herbicides” (priority 2004, published 2006)

Experiments:
[1] = system: barnyardgrass; experiment: Test C flooded paddy test; assay type: in vivo, Echinochloa crus-galli; conditions: for Plant response rating, Barnyardgrass: 500 g ai/ha, visual rating after 12 to 14 days
Procedure, shortened: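 Scoring by eye, 12–14 days post-treatment, greenhouse-held plants vs. controls; 0 no effect, 100 complete control. Sprayed at 1–4 leaves (2–18 cm); paddy barnyardgrass at 2 leaves, flooded.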

[2] = system: rice; experiment: Test C flooded paddy test; assay type: in vivo, Oryza sativa; conditions: for Plant response rating, Rice: 500 g ai/ha, visual rating after 12 to 14 days
Procedure, shortened: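 Injury scored visually against controls on a 0 (no effect) to 100 (complete control) scale, 12 to 14 days after treatment in greenhouse. Flooded paddy plants treated at 2-leaf stage; postemergence plants at 1- to 4-leaf stage, 2 to 18 cm tall.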

[3] = system: eastern black nightshade; experiment: Test C pre-/postemergence herbicide test; assay type: in vivo, Solanum ptycanthum; conditions: preemergence
Procedure, shortened: (§1)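 Preemergence: seeds planted and treated with compound in non-phytotoxic solvent with surfactant; postemergence: plants at 2 to 18 cm (1- to 4-leaf stage) sprayed likewise. Kept in greenhouse 12 to 14 days, then visually rated against controls, 0 (no effect) to 100 (complete control).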

[4] = system: yellow nutsedge; experiment: Test C pre-/postemergence herbicide test; assay type: in vivo, Cyperus esculentus; conditions: preemergence
Procedure, shortened: as §1

[5] = system: giant foxtail; experiment: Test A pre-/postemergence herbicide test; assay type: in vivo, Setaria faberi
Procedure, shortened: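 Sandy loam soil given preemergence directed spray; plants at 2 to 10 cm, one- to two-leaf stage, sprayed to runoff postemergence, compounds in non-phytotoxic solvent with surfactant. Injury rated visually versus untreated controls after about ten greenhouse days, 0 (no effect) to 100 (complete control); dash means not tested.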

[6] = system: large crabgrass; experiment: Test C pre-/postemergence herbicide test; assay type: in vivo, Digitaria sanguinalis; conditions: preemergence
Procedure, shortened: as §1

[7] = system: barnyardgrass; experiment: Test B flooded paddy test; assay type: in vivo, Echinochloa crus-galli; conditions: 1000 g ai/ha, scale 0 to 100 (0 no effect, 100 complete control)
Procedure, shortened: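 Read-out: visual comparison with controls, scored 0 to 100, where 100 means complete control and 0 no effect. Formulated chemicals were applied postemergence to plants 2–18 cm tall (1- to 4-leaf), or to flooded-paddy plants at the 2-leaf stage, then held 13 to 15 days under glass.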

[8] = system: wheat; experiment: Test B postemergence herbicide test; assay type: in vivo, Triticum aestivum; design: key to Wheat plant response rating: 0 = no effect, 100 = complete control
Procedure, shortened: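 Scale 0–100: zero equals no visible effect, 100 complete control, judged by eye relative to controls. Timing: 13 to 15 days in greenhouse post-treatment. Growth stage at spraying: two leaves (paddy) or one to four leaves, 2–18 cm (postemergence).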

[9] = system: woolly cupgrass; experiment: Test C pre-/postemergence herbicide test; assay type: in vivo, Eriochloa villosa; conditions: preemergence
Procedure, shortened: as §1

[10] = 62 g ai/ha, scale 0 to 100 (0 no effect, 100 complete control)
[11] = 125 g ai/ha, scale 0 to 100 (0 no effect, 100 complete control)
[12] = 250 g ai/ha, scale of 0 to 100, 0 is no effect, 100 is complete control
[13] = scale 0 to 100 (0 no effect, 100 complete control)
[14] = 125 g ai/ha, scale 0 (no effect) to 100 (complete control), visual, 12 to 14 days
[15] = 500 g ai/ha, scale 0 to 100 (0 no effect, 100 complete control), visual, 12 to 14 days

SMILES | Barnyardgrass plant response rating [1, 10] | Barnyardgrass plant response rating [1, 11] | Barnyardgrass plant response rating [1, 12] | Plant response rating, Barnyardgrass [1, 13] | Rice plant response rating ([2]; 62 g ai/ha, scale 0 to 100) | Rice plant response rating [2, 11] | Rice plant response rating [2, 12] | Plant response rating, Rice [2, 13] | Plant response rating, Nightshade ([3]; 62 g ai/ha, scale 0 to 100) | Plant response rating, Nightshade [3, 15] | Plant response rating, Nutsedge, Yellow ([4]; 62 g ai/ha, scale 0 to 100) | Plant response rating, Nutsedge, Yellow [4, 15] | Plant response rating, Crabgrass, Large ([6]; 62 g ai/ha, scale 0 to 100) | Plant response rating, Crabgrass, Large ([6]; 250 g ai/ha, scale 0-100) | Plant response rating, Crabgrass, Large [6, 15] | Barnyardgrass plant response rating [7] | Plant response rating, Cupgrass, Woolly ([9]; 62 g ai/ha, scale 0 to 100) | Plant response rating, Cupgrass, Woolly ([9]; 250 g ai/ha, scale 0-100) | Plant response rating, Cupgrass, Woolly [9, 15] | other results
CCNC(=O)c1ccc(F)c(NC(=O)C2CC(C(C)(C)C)=NN2CC)c1 (racemic) [Compound 269] | 45 | 65 | 75 | 90 | 45 | 50 | 75 | 80 | 90 | 100 | 5 | 60 | 95 | 100 | 100 | 90 | 10 | 60 | 85 | Plant response rating, Nightshade [3, 14]: 100; Plant response rating, Nightshade ([3]; 250 g ai/ha, scale 0-100): 100; Plant response rating, Nutsedge, Yellow [4, 14]: 10; Plant response rating, Nutsedge, Yellow ([4]; 250 g ai/ha, scale 0-100): 40; Foxtail, Giant plant response rating ([5]; Postemergence, 500 g ai/ha, 0 to 100 scale, 0 no effect, 100 complete control): 35; Plant response rating, Foxtail, Giant ([5]; Postemergence, 2000 g ai/ha, 0 to 100 scale, 0 no effect, 100 complete control): 65; Foxtail, Giant plant response rating ([5]; Preemergence, 2000 g ai/ha, visual rating, 0 to 100 scale (0 no effect, 100 complete control)): 100; Foxtail, Giant plant response rating ([5]; preemergence, 500 g ai/ha, visual injury, 0 to 100 scale (0 no effect, 100 complete control)): 100; Plant response rating, Crabgrass, Large [6, 14]: 100; Wheat plant response rating ([8]; postemergence, 125 g ai/ha, visual rating, scale 0 (no effect) to 100 (complete control)): 20; Wheat plant response rating ([8]; postemergence, 500 g ai/ha, scale 0 to 100, 0 is no effect, 100 is complete control): 30; Plant response rating, Cupgrass, Woolly [9, 14]: 40
CCc1nn(C(C)C)nc1C(=O)Nc1cccc(C(=S)N(C)C)c1 [Compound 409] | 20 | 20 | 40 | 60 | 20 | 40 | 50 | 60 | 45 | 95 | 0 | 55 | 85 | 95 | 95 | 90 | 40 | 80 | 80 | Plant response rating (0 = no effect, 100 = complete control), Nightshade ([3]; 125 g ai/ha): 85; Plant response rating (0 = no effect, 100 = complete control), Nutsedge, Yellow ([4]; 125 g ai/ha): 0; Plant response rating (0 = no effect, 100 = complete control), Crabgrass, Large ([6]; 125 g ai/ha): 95; Wheat plant response rating ([8]; 500 g ai/ha, scale 0 to 100, 0 no effect, 100 complete control, preemergence): 100; Wheat plant response rating ([8]; Postemergence, 500 g ai/ha, scale 0 (no effect) to 100 (complete control)): 10; Wheat plant response rating ([8]; postemergence, 125 g ai/ha, scale 0 to 100): 0; Plant response rating (0 = no effect, 100 = complete control), Cupgrass, Woolly ([9]; 125 g ai/ha): 55
